Values after ≈ are worked out from the molar mass of the structure shown.
Legend:
Bacillus subtilis = assay: In vitro antimicrobial screening, tube dilution method; format: cell-based; details: Bacillus subtilis; B. substilis, Gram +ve; nutrient broth, 37 ± 1 °C, 24 h; read-out: Minimum inhibitory concentration
Procedure: (§1) The in vitro antimicrobial screening of the synthesized 1,2,4-triazole derivatives (T1–T20) in μM was determined against Gram-positive Bacillus subtilis, […], Gram-negative Escherichia coli bacterium and fungal strains Candida albicans and Aspergillus niger by tube dilution method using ciprofloxacin, amoxycillin (antibacterial) and fluconazole (antifungal) as reference drugs. DMSO was used to dissolve the reference and sample derivatives (T1–T20). Dilutions were prepared in nutrient broth (I.P.) for bacterial (incubated at 37 ± 1 °C for 24 h) and Sabouraud dextrose broth (I.P.) for fungal species (37 ± 1 °C for 48 h for C. albicans) and (25 ± 1 °C for 7 days for A. niger) (Table 3, Figs. 4 and 5).

Escherichia coli = assay: as above; format: cell-based; details: Escherichia coli; E. coli, Gram −ve; nutrient broth, 37 ± 1 °C, 24 h; read-out: Minimum inhibitory concentration
Procedure: as §1

Pseudomonas aeruginosa = assay: as above; format: cell-based; details: Pseudomonas aeruginosa; P. aeruginosa, Gram −ve; nutrient broth, 37 ± 1 °C, 24 h; read-out: Minimum inhibitory concentration
Procedure: as §1

[1] = tested on: Gram-positive (B. subtilis), Gram-negative (P. aeruginosa and E. coli) bacterial strains; assay: Tube dilution method, MIC of antibacterial standards quoted without strain; format: cell-based; details: antibacterial standard, strain not given
Aspergillus niger = assay: In vitro antifungal screening, tube dilution method; format: cell-based; details: Aspergillus niger, 168 h; A. niger; Sabouraud dextrose broth, 25 ± 1 °C, 7 days; read-out: Minimum inhibitory concentration
Procedure: as §1

Candida albicans = assay: as above; format: cell-based; details: Candida albicans; C. albican; Sabouraud dextrose broth, 37 ± 1 °C, 48 h; read-out: Minimum inhibitory concentration
Procedure: as §1

[2] = DPPH free radical scavenging activity; details: for IC50: DPPH antioxidant; for % inhibition: DPPH
Procedure: In the DPPH free radical scavenging activity, compounds (T1–T20) were evaluated for their free radical scavenging activity with ascorbic acid as standard compound. The scavenging effect increased with the increasing concentrations of sample compounds. DPPH is relatively stable nitrogen centered free radical that easily accepts an electron or hydrogen radical to become a stable diamagnetic molecule. DPPH radicals react with suitable reducing agents as a result of which the electrons become paired off forming the corresponding hydrazine. The solution therefore loses colour stoichometrically depending on the number of electrons taken up. […] The sample solutions were incubated for 30 min at room temperature in dark place and after then absorbance was recorded against the blank solution at 517 nm. The relative percent of DPPH scavenging activity was calculated according to the following equation: I%=Acontrol-Asample/Acontrol×100,
where Acontrol is the absorbance of the control, Asample is the absorbance of the test compound.

Jack Bean Urease = Jack Bean Urease (Canavalia ensiformis, UniProt P07374); assay: biochemical
Procedure: Urease inhibitory potential for each synthesisized compound (T1–T20) was evaluated using Jack Bean Urease by Indophenol method (Table 5, Figs. 9, 10, 11). 250 µl of jack bean urease (4U) was mixed with 250 µl of different synthesized test compounds and standard of different concentrations [dissolved in DMSO/H2O mixture (1:1 v/v)]. The mixture was pre-incubated for 1 h at 37 °C in test tubes. 2 ml of 100 mM phosphate buffer (pH 6.8) containing 500 mM urea and 0.002% phenol red as an indicator were added in sample test tubes after pre incubation and again incubated at room temperature. Absorbance of reaction mixture was recorded by ELISA at 570 nm. Ammonium carbonate increased the pH of phosphate buffer from 6.8 to 7.7 which was produced from urea by urease enzyme and the end peak was measured by the colour of phenol red indicator [16].
The percentage inhibition of urease enzyme was calculated by using following formula: I%=Acontrol-Asample/Acontrol×100,
where Acontrol is the absorbance of the control; Asample is the absorbance of the test compound.

[3] = tested on: HCT116 (human colon cancer cells); assay: Anticancer evaluation, SRB assay; format: cell-based; details: Homo sapiens, HCT-116; HCT116, 72 h, SRB; mean of at least triplicates
Procedure: HCT116 (human colon cancer cells) were seeded at 2500 cells/well (96 well plate), allowed to attach overnight, exposed to the respective compounds for 72 h and subjected to SRB assay (570 nm). Data represent mean IC50 of at least triplicates. The compounds were all dissolved in DMSO as stock of 100 mg/ml. […] The highest concentration of each compound tested (100 μg/ml) contained only 0.1% DMSO.

Sequence of Jack Bean Urease (P07374 whole entry, looked up): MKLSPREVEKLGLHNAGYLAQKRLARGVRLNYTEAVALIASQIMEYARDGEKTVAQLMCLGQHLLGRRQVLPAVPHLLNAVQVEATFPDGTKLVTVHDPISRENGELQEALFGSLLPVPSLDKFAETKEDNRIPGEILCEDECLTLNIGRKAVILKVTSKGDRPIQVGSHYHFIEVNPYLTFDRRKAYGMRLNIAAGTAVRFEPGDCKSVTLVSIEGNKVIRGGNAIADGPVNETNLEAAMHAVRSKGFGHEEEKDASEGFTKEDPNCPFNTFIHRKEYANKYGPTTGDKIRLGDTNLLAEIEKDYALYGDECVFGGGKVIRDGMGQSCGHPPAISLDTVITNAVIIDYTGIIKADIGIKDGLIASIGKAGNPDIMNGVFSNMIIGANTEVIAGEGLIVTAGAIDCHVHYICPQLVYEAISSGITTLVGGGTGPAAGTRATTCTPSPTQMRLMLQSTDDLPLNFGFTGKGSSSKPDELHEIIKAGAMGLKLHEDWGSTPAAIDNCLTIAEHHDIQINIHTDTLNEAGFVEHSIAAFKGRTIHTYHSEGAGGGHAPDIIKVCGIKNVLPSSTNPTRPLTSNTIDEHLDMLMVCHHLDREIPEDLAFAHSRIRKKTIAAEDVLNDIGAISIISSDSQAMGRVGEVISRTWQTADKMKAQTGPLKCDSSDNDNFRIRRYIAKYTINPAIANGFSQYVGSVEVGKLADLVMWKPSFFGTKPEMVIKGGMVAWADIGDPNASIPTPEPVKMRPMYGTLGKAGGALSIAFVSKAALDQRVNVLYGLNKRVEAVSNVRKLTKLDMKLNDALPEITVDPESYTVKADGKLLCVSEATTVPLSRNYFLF

| Compound | MIC (Bacillus subtilis) [µM] | MIC (Escherichia coli) [µM] | MIC (Pseudomonas aeruginosa) [µM] | MIC [1] [µM] | MIC (Aspergillus niger) [µM] | MIC (Candida albicans) [µM] | IC50 [2] [µg/mL] | % inhibition ([2]; 25 µg/ml) [%] | % inhibition ([2]; 50 µg/ml) [%] | % inhibition ([2]; 75 µg/ml) [%] | % inhibition ([2]; 100 µg/ml) [%] | IC50 (Jack Bean Urease) [µM] | inhibition at 25 µg/mL (Jack Bean Urease) [%] | inhibition at 50 µg/mL (Jack Bean Urease) [%] | inhibition at 75 µg/mL (Jack Bean Urease) [%] | inhibition at 100 µg/mL (Jack Bean Urease) [%] | IC50 [3] [µM] | melting point [°C] |
| --- | --- | --- | --- | --- | --- | --- | --- | --- | --- | --- | --- | --- | --- | --- | --- | --- | --- | --- |
| CC1(C)S[C@@H]2[C@H](NC(=O)[C@H](N)c3ccc(O)cc3)C(=O)N2[C@H]1C(=O)O [Amoxicillin, reference compound] | 17.1 (≈ 6.25 µg/mL) | 17.1 (≈ 6.25 µg/mL) | 17.1 (≈ 6.25 µg/mL) | 17.1 | – | – | – | – | – | – | – | – | – | – | – | – | – | – |
| CCCCCCCCCCCCCCCc1nnc(S)n1N=Cc1cccc(Cl)c1 [Compound T10] | 55.6 (≈ 25 µg/mL) | 111 (≈ 50 µg/mL) | 55.6 (≈ 25 µg/mL) | – | 55.6 (≈ 25 µg/mL) | 223 (≈ 100 µg/mL) | 43.57 (≈ 97 µM) | 45.56 | 51.56 | 57.57 | 62.67 | 116 | 27.9 | 46.9 | 70.9 | 89.8 | 174 | 205 to 208 |
| CCCCCCCCCCCCCCCc1nnc(S)n1N=Cc1ccc(Cl)cc1 [Compound T11] | 55.6 (≈ 25 µg/mL) | 111 (≈ 50 µg/mL) | 111 (≈ 50 µg/mL) | – | 111 (≈ 50 µg/mL) | 27.8 (≈ 12.5 µg/mL) | 45.36 (≈ 101 µM) | 35.78 | 52.89 | 70.89 | 89.9 | 122 | 25 | 42.5 | 68.9 | 92.7 | > 223 | 202 to 205 |
| CCCCCCCCCCCCCCCc1nnc(S)n1N=Cc1ccc(Cl)cc1Cl [Compound T12] | 103 (≈ 50 µg/mL) | 103 (≈ 50 µg/mL) | 51.7 (≈ 25 µg/mL) | – | 103 (≈ 50 µg/mL) | 207 (≈ 100 µg/mL) | 39.56 (≈ 81.8 µM) | 44.45 | 51.45 | 68.56 | 70.61 | 120 | 43.6 | 46.6 | 52.6 | 61.6 | > 207 | 211 to 214 |
| CCCCCCCCCCCCCCCc1nnc(S)n1N=Cc1cccc(Br)c1 [Compound T13] | 101 (≈ 50 µg/mL) | 203 (≈ 100 µg/mL) | 203 (≈ 100 µg/mL) | – | 203 (≈ 100 µg/mL) | 101 (≈ 50 µg/mL) | 36.40 (≈ 73.8 µM) | 43.46 | 57.67 | 73.76 | 89.56 | 101 | 26.6 | 48.8 | 74 | 98.9 | > 203 | 197 to 200 |
| CCCCCCCCCCCCCCCc1nnc(S)n1N=Cc1ccc(Br)cc1 [Compound T14] | 50.6 (≈ 25 µg/mL) | 101 (≈ 50 µg/mL) | 101 (≈ 50 µg/mL) | – | 101 (≈ 50 µg/mL) | 203 (≈ 100 µg/mL) | 37.52 (≈ 76 µM) | 37.56 | 60.68 | 85.79 | 95.61 | 136 | 41.7 | 46.2 | 50.5 | 57.8 | 128 | 193 to 196 |
| CCCCCCCCCCCCCCCc1nnc(S)n1N=Cc1ccccc1[N+](=O)[O-] [Compound T15] | 54.3 (≈ 25 µg/mL) | 218 (≈ 100 µg/mL) | 109 (≈ 50 µg/mL) | – | 54.3 (≈ 25 µg/mL) | 218 (≈ 100 µg/mL) | 47.99 (≈ 104 µM) | 38.56 | 50.64 | 62.16 | 80.56 | 133 | 29 | 37.1 | 61.8 | 73.1 | > 218 | 195 to 198 |
| CCCCCCCCCCCCCCCc1nnc(S)n1N=Cc1cccc([N+](=O)[O-])c1 [Compound T16] | 109 (≈ 50 µg/mL) | 218 (≈ 100 µg/mL) | 109 (≈ 50 µg/mL) | – | 218 (≈ 100 µg/mL) | 218 (≈ 100 µg/mL) | 41.30 (≈ 89.8 µM) | 43.65 | 51.45 | 67.26 | 81.76 | 115 | 45.8 | 49.1 | 53.9 | 59.1 | 169 | 199 to 202 |
| CCCCCCCCCCCCCCCc1nnc(S)n1N=Cc1ccc([N+](=O)[O-])cc1 [Compound T17] | 54.3 (≈ 25 µg/mL) | 218 (≈ 100 µg/mL) | 218 (≈ 100 µg/mL) | – | 27.1 (≈ 12.5 µg/mL) | 109 (≈ 50 µg/mL) | – | 48.75 | 62.57 | 78.16 | 84.61 | 125 | 37.9 | 42.4 | 57.6 | 71.4 | > 218 | 206 to 209 |

Source: paper PMC7818921, “Synthesis and biological evaluation of heterocyclic 1,2,4-triazole scaffolds as promising pharmacological agents” (BMC Chemistry, 2021)
